Molecular target: human GPR40 receptor (Homo sapiens, UniProt O14842)
Assay: Assay II: IP1 accumulation (IPOne HTRF) in 1321N1 cells stably expressing human GPR40
Type: cell-based
Conditions: 1321N1 cells expressing human GPR40, stimulation 1 h at 37° C., 5% CO2, LiCl 50 mM
Experimental: IP1 accumulation measurements using the IPOne assay system—1321N1 cells stably expressing human GPR40 receptor (Euroscreen, Belgium) are seeded 24 h before the assay in white 384-well plates in culture medium containing 10% FCS, 1% Na-Pyruvate and 400 μg/mL G418. IP1 is assayed according to the manufacturers description (Cisbio Bioassays, France). In brief, the assay is started by substitution of the culture medium by stimulation buffer (Hepes 10 mM, CaCl2 1 mM, MgCl2 0.5 mM, KCl 4.2 mM, NaCl 146 mM, glucose 5.5 mM and LiCl 50 mM, pH 7.4). Cells are stimulated for 1 h at 37° C., 5% CO2 by addition of the compounds that are diluted in stimulation buffer containing LiCl. Assays are stopped by adding HTRF-conjugates (IP1-d2 and Anti-IP1 cryptate Tb) and lysis buffer, provided by the manufacturer. After an incubation time of 1 h at room temperature plates are measured using an EnVision™, Perkin Elmer. The obtained fluorescence ratios at 665/615 nM are then used to calculate the pEC50 values using Assay Explorer 3.3 Software (Accelrys, Inc.) by interpolation using an IP1 reference curve and subsequent sigmoidal curve fitting allowing for a variable hill slope.

human GPR40 receptor, sequence (O14842 whole entry): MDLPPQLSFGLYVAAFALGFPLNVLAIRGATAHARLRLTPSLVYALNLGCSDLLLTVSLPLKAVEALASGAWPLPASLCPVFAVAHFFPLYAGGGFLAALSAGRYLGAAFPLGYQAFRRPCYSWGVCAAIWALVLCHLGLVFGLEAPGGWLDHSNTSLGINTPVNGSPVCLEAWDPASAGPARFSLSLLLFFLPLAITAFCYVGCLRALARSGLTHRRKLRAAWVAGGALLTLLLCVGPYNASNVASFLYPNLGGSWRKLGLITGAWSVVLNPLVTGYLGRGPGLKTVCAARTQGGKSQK

For `Cc1cc(-c2nnn(C(C)(C)CO)n2)cc(C)c1-c1ccc(F)c2c1CC[C@H]2Oc1ccc2c(c1)OC[C@H]2CC(=O)O` [Example 99, 2-((S)-6-((R)-7-Fluoro-4-(4-(2-(1-hydroxy-2-methylpropan-2-yl)-2H-tetrazol-5-yl)-2,6-dimethylphenyl)-2,3-dihydro-1H-inden-1-yloxy)-2,3-dihydrobenzofuran-3-yl)acetic acid], the EC50 was 4 nM.
`CC(C)(C)COc1ncccc1-c1ccc(F)c2c1CC[C@H]2Oc1ccc2c(c1)OC[C@H]2CC(=O)O` [Example 100] showed an EC50 of 58 nM.
`Cc1cc(-c2ccc(=O)n(C)n2)cc(C)c1-c1ccc(F)c2c1CC[C@H]2Oc1ccc2c(c1)OC[C@H]2CC(=O)O` [Example 101, 2-((S)-6-((R)-4-(2,6-Dimethyl-4-(1-methyl-6-oxo-1,6-dihydropyridazin-3-yl)phenyl)-7-fluoro-2,3-dihydro-1H-inden-1-yloxy)-2,3-dihydrobenzofuran-3-yl)acetic acid] was tested, and the EC50 was 3 nM.
`CN(C)C(=O)c1ccccc1-c1ccc(F)c2c1CC[C@H]2Oc1ccc2c(c1)OC[C@H]2CC(=O)O` [Example 102, 2-((3S)-6-((1R)-4-(2-(Dimethylcarbamoyl)phenyl)-7-fluoro-2,3-dihydro-1H-inden-1-yloxy)-2,3-dihydrobenzofuran-3-yl)acetic acid] gave an EC50 of 2240 nM.
In the case of `Cn1nnnc1-c1c(F)cccc1-c1ccc(F)c2c1CC[C@H]2Oc1ccc2c(c1)OC[C@H]2CC(=O)O` [Example 103, 2-((3S)-6-((1R)-7-Fluoro-4-(3-fluoro-2-(1-methyl-1H-tetrazol-5-yl)phenyl)-2,3-dihydro-1H-inden-1-yloxy)-2,3-dihydrobenzofuran-3-yl)acetic acid], the EC50 is reported as 1430 nM.
Work on `Cc1cc(-c2ccncc2)cc(C)c1-c1ccc(F)c2c1CC[C@H]2Oc1ccc2c(c1)OC[C@H]2CC(=O)O` [Example 104, {(S)-6-[(R)-4-(2,6-Dimethyl-4-pyridin-4-yl-phenyl)-7-fluoro-indan-1-yloxy]-2,3-dihydro-benzofuran-3-yl}-acetic acid] yielded an EC50 of 7 nM.
In the case of `O=C(O)C[C@@H]1COc2cc(O[C@@H]3CCc4c(-c5cccnc5-c5ccoc5)ccc(F)c43)ccc21` [Example 105, {(S)-6-[(R)-7-Fluoro-4-(2-furan-3-yl-pyridin-3-yl)-indan-1-yloxy]-2,3-dihydro-benzofuran-3-yl}-acetic acid], the EC50 is reported as 582 nM.
Work on `O=C(O)C[C@@H]1COc2cc(O[C@@H]3CCc4c(-c5cccnc5-c5ccccc5)ccc(F)c43)ccc21` [Example 106, {(S)-6-[(R)-7-Fluoro-4-(2-phenyl-pyridin-3-yl)-indan-1-yloxy]-2,3-dihydro-benzofuran-3-yl}-acetic acid] yielded an EC50 of 59 nM.
`Cc1cc(-c2cc(C)c(-c3ccc(F)c4c3CC[C@H]4Oc3ccc4c(c3)OC[C@H]4CC(=O)O)c(C)c2)ccn1` [Example 107, {(S)-6-[(R)-4-(2,6-Dimethyl-4-(2-methyl-pyridin-4-yl)-phenyl)-7-fluoro-indan-1-yloxy]-2,3-dihydro-benzofuran-3-yl}-acetic acid] gave an EC50 of 4 nM.
`Cc1nn(C)c(C)c1-c1ncccc1-c1ccc(F)c2c1CC[C@H]2Oc1ccc2c(c1)OC[C@H]2CC(=O)O` [Example 108, {(S)-6-[(R)-7-Fluoro-4-[2-(1,3,5-trimethyl-pyrazol-4-yl)-pyridin-3-yl]-indan-1-yloxy]-2,3-dihydro-benzofuran-3-yl}-acetic acid] gave an EC50 greater than 10000 nM.
Compound `Cc1cc(-c2c(C)nn(C)c2C)cc(C)c1-c1ccc(F)c2c1CC[C@H]2Oc1ccc2c(c1)OC[C@H]2CC(=O)O` [Example 109, {(S)-6-[(R)-4-(2,6-Dimethyl-4-(1,3,5-trimethyl-pyrazol-4-yl)-phenyl)-7-fluoro-indan-1-yloxy]-2,3-dihydro-benzofuran-3-yl}-acetic acid] has an EC50 of 8 nM.
`O=C(O)C[C@@H]1COc2cc(O[C@@H]3CCc4c(-c5cccnc5C5CCOCC5)ccc(F)c43)ccc21` [Example 110, {(S)-6-[(R)-7-Fluoro-4-(2-tetrahydropyran-4-yl-pyridin-3-yl)-indan-1-yloxy]-2,3-dihydro-benzofuran-3-yl}-acetic acid] showed an EC50 of 351 nM.
Compound `Cc1cncc(-c2cc(C)c(-c3ccc(F)c4c3CC[C@H]4Oc3ccc4c(c3)OC[C@H]4CC(=O)O)c(C)c2)c1` [Example 111, {(S)-6-[(R)-4-(2,6-Dimethyl-4-(5-methyl-pyridin-3-yl)-phenyl)-7-fluoro-indan-1-yloxy]-2,3-dihydro-benzofuran-3-yl}-acetic acid] has an EC50 of 4 nM.
Work on `Cc1cc(-c2cccnc2)cc(C)c1-c1ccc(F)c2c1CC[C@H]2Oc1ccc2c(c1)OC[C@H]2CC(=O)O` [Example 112, {(S)-6-[(R)-4-(2,6-Dimethyl-4-pyridin-3-yl-phenyl)-7-fluoro-indan-1-yloxy]-2,3-dihydro-benzofuran-3-yl}-acetic acid] yielded an EC50 of 5 nM.
Work on `Cc1cnc(-c2cc(C)c(-c3ccc(F)c4c3CC[C@H]4Oc3ccc4c(c3)OC[C@H]4CC(=O)O)c(C)c2)nc1` [Example 113, {(S)-6-[(R)-4-(2,6-Dimethyl-4-(5-methyl-pyrimidin-2-yl)-phenyl)-7-fluoro-indan-1-yloxy]-2,3-dihydro-benzofuran-3-yl}-acetic acid] yielded an EC50 of 1 nM.
For `Cc1cnc(-c2cc(C)c(-c3ccc(F)c4c3CC[C@H]4Oc3ccc4c(c3)OC[C@H]4CC(=O)O)c(C)c2)cn1` [Example 114, {(S)-6-[(R)-4-(2,6-Dimethyl-4-(5-methyl-pyrazin-2-yl)-phenyl)-7-fluoro-indan-1-yloxy]-2,3-dihydro-benzofuran-3-yl}-acetic acid], the EC50 was 2 nM.
For `Cc1cc(-c2cc(C)c(-c3ccc(F)c4c3CC[C@H]4Oc3ccc4c(c3)OC[C@H]4CC(=O)O)c(C)c2)nc(C)n1` [Example 115, {(S)-6-[(R)-4-(2,6-Dimethyl-4-(2,6-dimethyl-pyrimidin-4-yl)-phenyl)-7-fluoro-indan-1-yloxy]-2,3-dihydro-benzofuran-3-yl}-acetic acid], the EC50 was 2 nM.
Compound `COc1cc(-c2cc(C)c(-c3ccc(F)c4c3CC[C@H]4Oc3ccc4c(c3)OC[C@H]4CC(=O)O)c(C)c2)ccn1` [Example 116, {(S)-6-[(R)-4-(2,6-Dimethyl-4-(2-methoxy-pyridin-4-yl)-phenyl)-7-fluoro-indan-1-yloxy]-2,3-dihydro-benzofuran-3-yl}-acetic acid] has an EC50 of 3 nM.
For `Cc1ccc(-c2cc(C)c(-c3ccc(F)c4c3CC[C@H]4Oc3ccc4c(c3)OC[C@H]4CC(=O)O)c(C)c2)cn1` [Example 117, {(S)-6-[(R)-4-(2,6-Dimethyl-4-(6-methyl-pyridin-3-yl)-phenyl)-7-fluoro-indan-1-yloxy]-2,3-dihydro-benzofuran-3-yl}-acetic acid], the EC50 was 2 nM.
With `Cc1cncc(-c2cc(C)c(-c3ccc(F)c4c3CC[C@H]4Oc3ccc4c(c3)OC[C@H]4CC(=O)O)c(C)c2)n1` [Example 118, {(S)-6-[(R)-4-(2,6-Dimethyl-4-(6-methyl-pyrazin-2-yl)-phenyl)-7-fluoro-indan-1-yloxy]-2,3-dihydro-benzofuran-3-yl}-acetic acid] the EC50 was 2 nM.
`Cc1ccnc(-c2cc(C)c(-c3ccc(F)c4c3CC[C@H]4Oc3ccc4c(c3)OC[C@H]4CC(=O)O)c(C)c2)n1` [Example 119, {(S)-6-[(R)-4-(2,6-Dimethyl-4-(4-methyl-pyrimidin-2-yl)-phenyl)-7-fluoro-indan-1-yloxy]-2,3-dihydro-benzofuran-3-yl}-acetic acid] was tested, and the EC50 was 1 nM.
Compound `Cc1ccc(-c2cc(C)c(-c3ccc(F)c4c3CC[C@H]4Oc3ccc4c(c3)OC[C@H]4CC(=O)O)c(C)c2)nn1` [Example 120, {(S)-6-[(R)-4-(2,6-Dimethyl-4-(6-methyl-pyridazin-3-yl)-phenyl)-7-fluoro-indan-1-yloxy]-2,3-dihydro-benzofuran-3-yl}-acetic acid] has an EC50 of 2 nM.
Compound `Cc1cc(-c2cc(C)c(-c3ccc(F)c4c3CC[C@H]4Oc3ccc4c(c3)OC[C@H]4CC(=O)O)c(C)c2)cc(C)n1` [Example 121, {(S)-6-[(R)-4-(2,6-Dimethyl-4-(2,6-dimethyl-pyridin-4-yl)-phenyl)-7-fluoro-indan-1-yloxy]-2,3-dihydro-benzofuran-3-yl}-acetic acid] has an EC50 of 2 nM.
`Cc1cc(-c2cnccn2)cc(C)c1-c1ccc(F)c2c1CC[C@H]2Oc1ccc2c(c1)OC[C@H]2CC(=O)O` [Example 122, {(S)-6-[(R)-4-(2,6-Dimethyl-4-pyrazin-2-yl-phenyl)-7-fluoro-indan-1-yloxy]-2,3-dihydro-benzofuran-3-yl}-acetic acid] gave an EC50 of 2 nM.
For `Cc1cc(-c2cnc(C3CC3)cn2)cc(C)c1-c1ccc(F)c2c1CC[C@H]2Oc1ccc2c(c1)OC[C@H]2CC(=O)O` [Example 123, {(S)-6-[(R)-4-(2,6-Dimethyl-4-(5-cyclopropyl-pyrazin-2-yl)-phenyl)-7-fluoro-indan-1-yloxy]-2,3-dihydro-benzofuran-3-yl}-acetic acid], the EC50 was 7 nM.
`Cc1cccc(C)c1-c1ncccc1-c1ccc(F)c2c1CC[C@H]2Oc1ccc2c(c1)OC[C@H]2CC(=O)O` [Example 124, {(S)-6-[(R)-4-(2-(2,6-Dimethyl-phenyl)-pyridin-3-yl)-7-fluoro-indan-1-yloxy]-2,3-dihydro-benzofuran-3-yl}-acetic acid] was tested, and the EC50 was 339 nM.
With `CCc1ccc(-c2cc(C)c(-c3ccc(F)c4c3CC[C@H]4Oc3ccc4c(c3)OC[C@H]4CC(=O)O)c(C)c2)nn1` [Example 125, {(S)-6-[(R)-4-(2,6-Dimethyl-4-(6-ethyl-pyridazin-3-yl)-phenyl)-7-fluoro-indan-1-yloxy]-2,3-dihydro-benzofuran-3-yl}-acetic acid] the EC50 was 4 nM.

Source: patent publication US8642585B2, “Indanyloxydihydrobenzofuranylacetic acids” (Boehringer Ingelheim International GmbH, priority 2012, dated 2014)
